Legend:
[1] = test system: HEK293 (BCR-ABL-) cells; experiment: CCK-8 proliferation inhibition, HEK293 cells; settings: Homo sapiens, HEK293, 48 h, read-out: Proliferative inhibitory activity (IC50, nM) HEK293 (BCR-ABL-);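 further: Ten-point threefold dilution series starting at 10 µM, CCK-8 absorbance at 450 nm read after 2 h reagent incubation, DMSO-treated cells as negative control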
[2] = target: c-ABL protein (Homo sapiens, UniProt P00519); experiment: Western blot degradation of c-ABL in K562 cells; format: cell-based; parameters: Western blot was used to detect the expression of BCR-ABL and c-ABL protein in K562 cells; endogenous in cells; host or cells: K562; settings: 16 hours, 1 nM-10 μM
Description: (§1) (1) Cell seed: K562 cells were added to the 24 well plates, with a cell density of 3×10^5/ml and a total volume of 1.5 ml; Five concentration gradients, 1 nm, 10 nm, 100 nm, 1 μM, and 10 μM, were respectively set for PROTAD series compounds and comparative examples compounds (Dasa-6-2-2-6-VHL, Dasa-6-2-6-CRBN). […] After 16 hours of drug treatment, the cells were collected in 1.5 ml ep tube, centrifuged at 3000 rpm for 3 minutes, and then added 30 μL PBS and 30 ul 2×SDS to cell precipitated, lysate Heat at 100° C. for 5 minutes, then place on ice for 5 minutes, centrifuged at 10000 rpm for 5 minutes, and take the supernatant as the total protein extracted. The protein concentration was determined by the Bradford method. After each sample was at the same concentration, bromophenol blue was added as the sample indicator.
(§2) (2) Electrophoresis: the starting voltage of the BioRad electrophoresis instrument was 80V, and as the dye enters the separation gel, the voltage was adjusted to 120V;
(§3) (3) Film transfer: prepare filter paper and nitrocellulose membrane with the corresponding size of the gel, filter paper, and NC film were soaked in transfer electrophoresis buffer.
(§4) DC50 (concentration required to degrade protein by half) were calculated based on the intensity from western blot, and data were analyzed via Prism GraphPad with non-linear regression.

[3] = target: BCR-ABL protein (Homo sapiens, UniProt P00519); experiment: Western blot degradation of BCR-ABL in K562 cells; format: cell-based; parameters: Western blot was used to detect the expression of BCR-ABL and c-ABL protein in K562 cells; BCR (fusion partner, P11274); endogenous in cells; host or cells: K562; the other entry of the earlier key: BCR (P11274, Breakpoint cluster region protein); settings: 16 hours, 1 nM-10 μM
Description: as §1, §2, §3, §4

[4] = test system: U937 (BCR-ABL-) cells; experiment: CCK-8 proliferation inhibition, U937 cells; format: cell-based, human; settings: Homo sapiens, U-937; CCK-8, 48 hours of drug treatment, highest concentration 10 μM; read-out: Proliferative inhibitory activity (IC50, nM) U937 (BCR-ABL-);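 further: Ten-point threefold dilution series, absorbance at 450 nm after 2 h with CCK-8 reagent, DMSO as negative control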
[5] = test system: K562 (BCR-ABL+) cells; experiment: CCK-8 proliferation inhibition, K562 cells; format: cell-based, human; settings: Homo sapiens, K562, 48 h, CCK-8, 48 hours of drug treatment; read-out: Proliferative inhibitory activity (IC50, nM) K562 (BCR-ABL+);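 further: Ten-point threefold dilution series starting at 10 µM, absorbance at 450 nm after 2 h with CCK-8, DMSO as negative control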

Sequence of c-ABL protein (P00519 whole entry): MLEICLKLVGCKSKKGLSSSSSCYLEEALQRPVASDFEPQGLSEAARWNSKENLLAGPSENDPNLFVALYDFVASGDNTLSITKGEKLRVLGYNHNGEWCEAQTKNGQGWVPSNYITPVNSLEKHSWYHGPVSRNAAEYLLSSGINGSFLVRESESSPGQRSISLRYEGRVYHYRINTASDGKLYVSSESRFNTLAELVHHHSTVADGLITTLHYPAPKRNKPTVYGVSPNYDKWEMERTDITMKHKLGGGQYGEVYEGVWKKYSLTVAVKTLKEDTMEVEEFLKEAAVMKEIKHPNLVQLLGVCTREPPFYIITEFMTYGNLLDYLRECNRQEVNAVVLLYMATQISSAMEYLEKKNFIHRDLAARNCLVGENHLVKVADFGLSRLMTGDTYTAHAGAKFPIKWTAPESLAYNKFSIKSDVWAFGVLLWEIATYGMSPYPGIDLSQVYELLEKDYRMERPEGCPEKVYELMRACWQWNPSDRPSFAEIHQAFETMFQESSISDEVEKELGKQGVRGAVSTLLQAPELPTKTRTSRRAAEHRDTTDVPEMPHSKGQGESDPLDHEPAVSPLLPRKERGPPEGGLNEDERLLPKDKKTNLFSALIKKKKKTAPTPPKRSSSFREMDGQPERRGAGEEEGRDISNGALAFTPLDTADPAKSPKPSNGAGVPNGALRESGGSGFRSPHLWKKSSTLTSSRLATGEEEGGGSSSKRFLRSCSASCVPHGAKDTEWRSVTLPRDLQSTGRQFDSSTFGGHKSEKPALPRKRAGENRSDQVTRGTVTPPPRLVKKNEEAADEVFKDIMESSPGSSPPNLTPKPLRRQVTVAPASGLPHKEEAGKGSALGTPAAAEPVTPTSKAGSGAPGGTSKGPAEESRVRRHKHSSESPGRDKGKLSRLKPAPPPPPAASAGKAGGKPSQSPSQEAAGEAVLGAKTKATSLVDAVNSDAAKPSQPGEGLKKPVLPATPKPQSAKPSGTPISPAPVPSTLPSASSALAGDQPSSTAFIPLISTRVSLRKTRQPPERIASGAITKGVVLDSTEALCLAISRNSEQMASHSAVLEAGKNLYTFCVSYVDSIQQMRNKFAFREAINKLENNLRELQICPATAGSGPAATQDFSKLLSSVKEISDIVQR
Sequence of BCR-ABL protein (P00519 with tags, fused parts or gaps): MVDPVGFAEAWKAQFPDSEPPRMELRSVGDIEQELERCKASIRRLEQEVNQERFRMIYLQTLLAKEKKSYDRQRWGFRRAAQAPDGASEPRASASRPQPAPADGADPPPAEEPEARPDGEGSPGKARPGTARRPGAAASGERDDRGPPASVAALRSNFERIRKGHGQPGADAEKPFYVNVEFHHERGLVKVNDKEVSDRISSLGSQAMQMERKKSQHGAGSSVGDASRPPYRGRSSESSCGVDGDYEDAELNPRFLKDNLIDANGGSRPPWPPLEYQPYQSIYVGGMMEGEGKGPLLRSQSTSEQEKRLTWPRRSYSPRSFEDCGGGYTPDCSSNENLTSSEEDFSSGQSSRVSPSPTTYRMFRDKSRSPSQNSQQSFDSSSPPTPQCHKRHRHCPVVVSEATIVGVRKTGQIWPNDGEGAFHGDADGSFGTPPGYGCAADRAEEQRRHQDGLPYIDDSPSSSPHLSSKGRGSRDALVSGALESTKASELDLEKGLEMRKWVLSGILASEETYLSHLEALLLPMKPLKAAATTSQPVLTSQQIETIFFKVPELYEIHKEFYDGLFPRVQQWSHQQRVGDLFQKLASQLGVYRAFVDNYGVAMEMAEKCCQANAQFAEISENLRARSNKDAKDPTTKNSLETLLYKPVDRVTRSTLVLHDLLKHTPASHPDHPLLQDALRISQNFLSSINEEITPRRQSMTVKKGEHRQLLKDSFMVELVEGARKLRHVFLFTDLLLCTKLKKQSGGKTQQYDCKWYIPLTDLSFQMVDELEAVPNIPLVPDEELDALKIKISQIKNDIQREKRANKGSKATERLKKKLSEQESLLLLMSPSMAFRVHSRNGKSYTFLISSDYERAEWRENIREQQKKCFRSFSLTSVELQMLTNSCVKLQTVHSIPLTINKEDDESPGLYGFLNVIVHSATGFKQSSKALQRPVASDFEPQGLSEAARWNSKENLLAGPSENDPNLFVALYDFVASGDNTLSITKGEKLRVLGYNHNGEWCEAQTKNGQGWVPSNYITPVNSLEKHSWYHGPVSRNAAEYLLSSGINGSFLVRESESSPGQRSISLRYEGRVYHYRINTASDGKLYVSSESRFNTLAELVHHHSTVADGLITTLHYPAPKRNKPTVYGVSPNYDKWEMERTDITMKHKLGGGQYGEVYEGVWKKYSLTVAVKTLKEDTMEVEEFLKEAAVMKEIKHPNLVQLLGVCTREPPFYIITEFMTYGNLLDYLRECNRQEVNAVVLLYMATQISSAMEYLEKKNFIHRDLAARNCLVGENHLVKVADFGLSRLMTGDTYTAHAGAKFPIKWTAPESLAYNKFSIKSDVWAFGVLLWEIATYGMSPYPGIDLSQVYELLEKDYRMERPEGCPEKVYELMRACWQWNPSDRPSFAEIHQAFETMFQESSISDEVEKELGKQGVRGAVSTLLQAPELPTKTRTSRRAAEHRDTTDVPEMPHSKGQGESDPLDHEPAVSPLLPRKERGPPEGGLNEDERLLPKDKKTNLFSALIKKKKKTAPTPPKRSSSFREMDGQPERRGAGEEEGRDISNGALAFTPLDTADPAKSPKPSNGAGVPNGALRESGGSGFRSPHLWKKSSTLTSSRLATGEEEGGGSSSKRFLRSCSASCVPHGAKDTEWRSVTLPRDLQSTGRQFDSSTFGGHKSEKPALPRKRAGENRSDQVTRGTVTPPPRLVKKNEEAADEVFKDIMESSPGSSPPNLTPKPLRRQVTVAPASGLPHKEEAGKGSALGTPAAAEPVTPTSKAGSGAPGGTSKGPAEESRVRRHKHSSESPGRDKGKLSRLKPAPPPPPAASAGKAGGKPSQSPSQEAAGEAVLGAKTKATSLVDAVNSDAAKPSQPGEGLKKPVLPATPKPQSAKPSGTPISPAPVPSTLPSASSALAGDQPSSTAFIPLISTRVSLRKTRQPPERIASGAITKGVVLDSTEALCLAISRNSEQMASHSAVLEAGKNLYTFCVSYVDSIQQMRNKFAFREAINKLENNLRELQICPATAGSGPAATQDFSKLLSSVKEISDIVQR

COc1cc(Nc2c(C#N)cnc3cc(OCCCN4CCN(C(=O)CCOCCOCCOCCNc5cccc6c5C(=O)N(C5CCC(=O)NC5=O)C6=O)CC4)c(OC)cc23)c(Cl)cc1Cl (stereo not drawn) [SIAIS151159, 4-((2,4-dichloro-5-methoxyphenyl)amino)-7-(3-(4-(3-(2-(2-(2-((2-(2,6-dioxopiperidin-3-yl)-1,3-dioxoisoindolin-4-yl)amino)ethoxy)ethoxy)ethoxy)propanoyl)piperazin-1-yl)propoxy)-6-methoxyquinoline-3-carbonitrile]
IC50 [1]: > 10000 nM
DC50 [2]: 0.01 to 0.1 µM
DC50 [3]: 0.01 to 0.1 µM
IC50 [4]: > 10000 nM
IC50 [5]: 4260 nM

COc1cc(Nc2c(C#N)cnc3cc(OCCCN4CCN(C(=O)CCC(=O)NCCNc5cccc6c5C(=O)N(C5CCC(=O)NC5=O)C6=O)CC4)c(OC)cc23)c(Cl)cc1Cl (stereo not drawn) [SIAIS164136, 4-(4-(3-((3-cyano-4-((2,4-dichloro-5-methoxyphenyl)amino)-6-methoxyquinolin-7-yl)oxy)propyl)piperazin-1-yl)-N-(2-((2-(2,6-dioxopiperidin-3-yl)-1,3-dioxoisoindolin-4-yl)amino)ethyl)-4-oxobutanamide]
IC50 [1]: > 10000 nM
DC50 [2]: 0.001 to 0.01 µM
DC50 [3]: 0.001 to 0.01 µM
IC50 [4]: > 10000 nM
IC50 [5]: 77.6 nM

COc1cc(Nc2c(C#N)cnc3cc(OCCCN4CCN(C(=O)CCCNc5cccc6c5C(=O)N(C5CCC(=O)NC5=O)C6=O)CC4)c(OC)cc23)c(Cl)cc1Cl (stereo not drawn) [SIAIS151162, 4-((2,4-dichloro-5-methoxyphenyl)amino)-7-(3-(4-(4-((2-(2,6-dioxopiperidin-3-yl)-1,3-dioxoisoindolin-4-yl)amino)butanoyl)piperazin-1-yl)propoxy)-6-methoxyquinoline-3-carbonitrile]
IC50 [1]: > 10000 nM
DC50 [2]: 0.01 to 0.1 µM
DC50 [3]: 0.01 to 0.1 µM
IC50 [4]: > 10000 nM
IC50 [5]: 712 nM

Cc1nc(Nc2ncc(C(=O)Nc3c(C)cccc3Cl)s2)cc(N2CCN(C(=O)CCOCCOCCNc3cccc4c3C(=O)N(C3CCC(=O)NC3=O)C4=O)CC2)n1 (stereo not drawn) [SIAIS151064, N-(2-chloro-6-methylphenyl)-2-((6-(4-(3-(2-(2-((2-(2,6-dioxopiperidin-3-yl)-1,3-dioxoisoindolin-4-yl)amino)ethoxy)ethoxy)propanoyl)piperazin-1-yl)-2-methylpyrimidin-4-yl)amino)thiazole-5-carboxamide]
IC50 [1]: > 10000 nM
DC50 [2]: 0.01 to 0.1 µM
DC50 [3]: 0.001 to 0.01 µM
IC50 [4]: > 10000 nM
IC50 [5]: 8.05 nM

Cc1nc(Nc2ncc(C(=O)Nc3c(C)cccc3Cl)s2)cc(N2CCN(C(=O)COc3cccc4c3C(=O)N(C3CCC(=O)NC3=O)C4=O)CC2)n1 (stereo not drawn) [SIAIS184128, N-(2-chloro-6-methylphenyl)-2-((6-(4-(2-((2-(2,6-dioxopiperidin-3-yl)-1,3-dioxoisoindolin-4-yl)oxy)acetyl)piperazin-1-yl)-2-methylpyrimidin-4-yl)amino)thiazole-5-carboxamide]
IC50 [1]: > 10000 nM
DC50 [2]: 0.001 to 0.01 µM
DC50 [3]: 0.001 to 0.01 µM
IC50 [4]: > 10000 nM
IC50 [5]: 7 nM

Cc1nc(Nc2ncc(C(=O)Nc3c(C)cccc3Cl)s2)cc(N2CCN(C(=O)CCCCCCCC(=O)N[C@H](C(=O)N3C[C@H](O)C[C@H]3C(=O)NCc3ccc(-c4scnc4C)cc3)C(C)(C)C)CC2)n1 [SIAIS151179, N-(2-chloro-6-methylphenyl)-2-((6-(4-(9-(((S)-1-((2S,4R)-4-hydroxy-2-((4-(4-methylthiazol-5-yl)benzyl)carbamoyl)pyrrolidin-1-yl)-3,3-dimethyl-1-oxobutan-2-yl)amino)-9-oxononanoyl)piperazin-1-yl)-2-methylpyrimidin-4-yl)amino)thiazole-5-carboxamide]
IC50 [1]: > 10000 nM
DC50 [2]: 0.1 to 1 µM
DC50 [3]: 0.01 to 0.1 µM
IC50 [4]: > 10000 nM
IC50 [5]: 22.4 nM

Source: patent publication US11639343B2, “Compounds targeting and degrading BCR-ABL protein and its antitumor application” (ShanghaiTech University, priority 2019, dated 2023)
